Laboratory results as given in patent US20060205642A1, “Oral methods of treatment using proANF peptides” (priority 2005, published 2006).

Tests used:
porcine aortas = experiment: Vasodilation of porcine aortic strips preconstricted with 0.3 micromolar phenylephrine
Procedure: 30 Kg pigs are sacrificed, and aortic strips are harvested. The strips are attached to F-60 transducer (Narco-BioSystems, Houston, Tex.) and attached to a physiography (Narco-BioSystems) while being submerged in a muscle tissue bath comprising a Krebs Ringer solution at 37° C., with 95% O2-5% CO2, bubbled through the bath. Percentage vasodilation is measured versus time after preconstriction with 0.3 micromolar phenylephrine. […] (Vesely et al., Biochem. Biophys. Res. Commun. 148:1540-1548, 1987).

[1] = system: particulate guanylate cyclase; experiment: Cyclic GMP / particulate guanylate cyclase activation in cultured smooth muscle cells and porcine aorta; format: cell-based
[2] = Rat clearance model (diuresis and salt excretion); format: in vivo, Munich-Wistar rats; conditions: for FENa, fractional excretion of sodium / UNa, urinary sodium / UNaV, urinary sodium excretion rate / V, urine flow rate: means ± SE
Procedure: The same three peptides and ANF from Example I are tested using the rat clearance model. Six control rats and six experimental Munich-Wistar rats, each weighing 150-200 grams, are used for each peptide, with catheters being placed in both jugular veins and in the femoral artery. The ureters are cannulated for simultaneous urine collections with femoral artery blood collections.
After inserting the catheters, a stabilization of one hour is allowed. A 10 μg/kg bolus of each of the respective human sequences of the peptides is given via the jugular vein to six experimental rats followed by a sustaining infusion of 0.1 μg/kg/min for 60 minutes. Blood and urine samples are collected at 20 minute intervals during this 60 minute infusion. In both the control and experimental animals, hematocrits and plasma sodium values remained at the same levels pre- and post-infusion while blood pressure decreased with each of these peptides (see Attachment B).

[3] = system: particulate guanylate cyclase; experiment: Particulate guanylate cyclase activity in the kidney; format: biochemical; conditions: 1 μM; whole kidney homogenates, renal cortical and medullary membranes, isolated distal nephrons
Procedure: Testing is also carried out to determine biologic effects of these peptides by measuring their effects on particulate guanylate activity in the kidney.

[4] = Infusion into human subjects with Class III NYHA congestive heart failure; format: in vivo, humans
Procedure: Human proANF's 1-30, 31-67, 79-98, and 99-126 (i.e., ANF) were infused into human subjects with Class III New York Heart Association congestive heart failure (CHF). An identical protocol to that used in example V where these peptides were infused into healthy human subjects was utilized. (See Attachment C and F for a detailed description of this protocol). The human subjects with congestive heart failure received an identical dose (0.1 μg/kg body wt/minute for 60 minutes) that the healthy human subjects received. […] This striking urine output secondary to proANF 31-67 was significant at P<0.0001 compared to the pre-infusion output of the congestive heart failure subjects (n=6).

[5] = Ischemic nonoliguric acute renal failure (ARF) in rats; format: in vivo, Sprague-Dawley rats
Procedure: Ischemic nonologuric acute renal failure (ARF) was induced in 24 male Sprague-Dawley rats (Zivc-Miller), weighing 200-270 g with 50 min of ischemia. Seven of the ARF rats received proANF 31-67. There were 17 ARF rats in the control group. Each of these rats were handled identically with the control rats as well as the experimental group of rats receiving an osmotic pump placement two days after receiving a unilateral right nephrectomy followed by clamping left renal artery for 50 min. The only difference was that the control group received 0.9% saline only in their osmotic pumps, whereas the experimental group had proANF 31-67 dissolved in 0.9% saline within their osmotic pumps which pump for 72 hours into the peritoneal cavity. In the 17 control ARF rats their preischemic blood urea nitrogen (BUN) and creatinine levels of 16±1 and 0.56±0.05 mg/dl increased to 162±4 and 8.17±0.5 mg/dl, P<0.001, respect 4 of postischemia. ProANF 31-67 (0.3 μg·kg^−1·min^−1 intraperitoneally), decreased the BUN and creatinine levels to 53±17 mg/dl and 0.98±0.12 mg/dl (P<0.001) in seven animals where ARF had been established for two days. […] Acute tubular necrosis was <5% in the proANF 31-67-treated rats compared with 25% to >75% in the placebo-treated ARF animals.

[6] = system: prostaglandin E2 (PGE2) synthesis; experiment: Prostaglandin E2 synthesis (FIG. 8); format: biochemical; conditions: n=6, ANOVA and Duncan's MRT
[7] = system: renal medullary Na+-K+-ATPase; experiment: Inhibition of renal medullary Na+-K+-ATPase activity (FIG. 9); format: biochemical; conditions: 10^-11 M, n=6, ANOVA
Source text: FIG. 9. Inhibition of renal medullary Na+-K+-ATPase activity by proANF 79-98 (kaliuretic peptide), proANF 1-30 (long acting natriuretic peptide), proANF 31-67 (vessel dilator), and angiotensin II at their […] concentrations.

[8] = A, control period (before peptide)
[9] = B, first 60-minute experiment period, 10 μg/kg bolus then 0.1 μg/kg/min
[10] = C, second 60-minute experimental period

In the case of “H-EVVPPQVLSEPNEEAGAALSPLPEVPPWTGEVSPAQR-OH [proANF 31-67]”, the “increase in cyclic GMP levels over baseline levels associated with vasodilation” value (porcine aortas) is reported as “four-to-five fold”, the “cyclic GMP levels in cultured smooth muscle cells” value ([1]; cultured smooth muscle cells) is reported as “increase cyclic GMP levels” and the “concentration of maximal activation of guanylate cyclase activity” value ([1]; porcine aorta and isolated smooth muscle cells) is reported as “about 1 μM”. The EC50 ([1]; porcine aorta and isolated smooth muscle cells, read-out: half maximal activation (ED5o) of guanylate cyclase) was about 0.01 µM, the “FENa, fractional excretion of sodium” value [2, 8] was 0.057 ± 0.012% and the “UNa, urinary sodium” value [2, 8] was 21.02 ± 4.41 meq/1. For the same substance, the “UNaV, urinary sodium excretion rate” value [2, 8] was 144.08 ± 56.75 μeq · min^−1 · g kidney wt^−1, the “V, urine flow rate” value [2, 8] was 2.63 ± 0.24 μl · min^−1 · g kidney wt^−1 and the “V, urine flow rate” value ([2]; B, first 60-minute experiment period, 10 μg/kg bolus then 0.1 μg/kg/min via jugular vein) was 9.36 ± 3.14 μl · min^−1 · g kidney wt^−1. For the same substance, the “FENa, fractional excretion of sodium” value [2, 9] was 0.457 ± 0.156%, the “UNa, urinary sodium” value [2, 9] was 111.73 ± 21.37 meq/1 and the “UNaV, urinary sodium excretion rate” value [2, 9] was 1,057 ± 371.69 μeq · min^−1 · g kidney wt^−1. The “V, urine flow rate” value ([2]; C, second 60-minute experimental period, 10 μg/kg bolus then 0.1 μg/kg/min) was 8.84 ± 1.86 μl · min^−1 · g kidney wt^−1, the “FENa, fractional excretion of sodium” value [2, 10] was 0.444 ± 0.155% and the “UNa, urinary sodium” value [2, 10] was 129.33 ± 24.73 meq/1. For the same substance, the “UNaV, urinary sodium excretion rate” value [2, 10] was 1,077.63 ± 306.10 μeq · min^−1 · g kidney wt^−1, the potassium excretion ([2]; rat clearance model) was “does not cause increased potassium excretion” and the “particulate guanylate cyclase activity” value [3] was “enhance”. For the same substance, the “FENa 20 minutes after infusion began” value ([4]; CHF) was “doubled”, the “FENa at the end of the infusion vs baseline” value ([4]; CHF) was 4.5 fold and the “decrease of central venous pressure” value ([4]; CHF) was 27%. For the same substance, the “decrease of pulmonary capillary wedge pressure” value ([4]; CHF) was 33%, the heart rate ([4]; CHF) was “did not change significantly” and the “increase of cardiac index” value ([4]; CHF) was 35%. The “increase of cardiac output” value ([4]; CHF) was 34%, the “increase of stroke volume index” value ([4]; CHF) was 24% and the “mean pulmonary artery pressure” value ([4]; CHF) was “did not change significantly”. The “sodium excretion within 20 minutes” value ([4]; CHF) was “doubling”, the “enhancement of sodium excretion” value ([4]; CHF subjects, 100 ng/kg body weight/min for 60 minutes) was “three-to-eight fold” and the “urine output in 20 minutes” value ([4]; CHF, 0.1 μg/kg body wt/minute for 60 minutes) was “doubled”. For the same substance, the “urine output at the end of the 60 minute infusion” value ([4]; CHF, 0.1 μg/kg body wt/minute, n=6) was 4.8 fold, the “fractional excretion of sodium (in words)” value ([4]; CHF, 100 ng/kg body weight per minute for 60 minutes) was “significantly (P<0.05) increased” and the “maximum increase of fractional excretion of sodium (FENa)” value ([4]; CHF, P<0.001) was 6 fold. For the same substance, the “sodium excretion 3 hours after infusion was stopped vs baseline” value ([4]; CHF, P<0.01) was 3 fold, the “decrease of pulmonary vascular resistance” value ([4]; CHF, during the infusion) was 25% and the “decrease of systemic vascular resistance” value ([4]; CHF, during the infusion) was 24%. For the same substance, the “urine output 3 hours after stopping the infusion vs pre-infusion values” ([4]; CHF, n=6) was 4.3 fold, the “urine output 3 hours after stopping the infusion” value ([4]; CHF, n=6, baseline 1.56±0.35 mL/min) was 6.7 ± 0.65 mL/min and the “cardiac index after proANF 31-67” value ([4]; CHF, from 2.66±0.01) was 3.58±0.01 L·min^−1·m^−2. The “cardiac output after proANF 31-67” value ([4]; CHF, from 5.35±0.9 L/min) was 7.9 ± 1.2 L/min, the “effects in persons with CHF compared to healthy individuals” value ([4]; diuretic and natriuretic effects) was “not blunted (i.e., decreased) compared to healthy individuals” and the adverse effects ([4]; human, in vivo) was “no adverse effects”. The hypotension ([4]; human, in vivo) was “None became hypotensive”, the “increase in urinary volume and flow” value ([4]; one CHF patient, for six hours after infusion was stopped) was 2 fold and the creatinine level ([5]; 0.3 μg·kg^−1·min^−1 intraperitoneally, seven animals, ARF established two days, control ARF rats 8.17±0.5 at day 4) was 0.98 ± 0.12 mg/dL. For the same substance, the “blood urea nitrogen (BUN) level” value ([5]; 0.3 μg·kg^−1·min^−1 intraperitoneally, seven animals, ARF established two days, control ARF rats 162±4 at day 4) was 53 ± 17 mg/dL, the acute tubular necrosis ([5]; 25% to >75% in placebo-treated animals) was under 5% and the “mortality at day 6 of ARF” value ([5]; 88% without proANF 31-67) was 14%. The “left ventricular dilation (transthoracic echocardiography)” value ([5]; ARF rats) was “reversed this dilation”, the water excretion ([5]; doubled with ARF) was “further augmented” and the “survival (Kaplan-Meir plot)” value ([5]; from day 4 (P<0.01) and day 5 onward (P<0.001) vs placebo-treated ARF rats) was “significant advantage with respect to survival”. For the same substance, the “prostaglandin E2 (PGE2) synthesis” value [6] was “increase prostaglandin E2 (PGE2) synthesis” and the “inhibition of renal medullary Na+-K+-ATPase activity” value [7] was “significant at P<0.01”.
